Test results: US12447137B2, “Composition for prevention, amelioration, or treatment of cancer” (EWHA UNIVERSITY—INDUSTRY COLLABORATION FOUNDATION, priority 2019, dated 2025)

How the values were obtained:
MDA-MB-231 cell line = test: Clonogenic assay; format: cell-based, human; details: MDA-MB-231, 10 μM; FIG. 2B
Description: (§1) The breast cancer cell line of Experimental Method 1 was dispensed into a 6-well plate at a density of 1 to 2×10^3 cells/well. After the cells were sufficiently attached, they were treated with the compound of Production Example 6 at a concentration of 0 to 30 μM and cultured for 10 days to 14 days. Next, the cultured cells were fixed with 4% formaldehyde and stained with 1% crystal violet, and the colonies were counted under a microscope.

BT549 cell line = test: Clonogenic assay; format: cell-based, human; details: BT549, 10 μM; FIG. 2B
Description: as §1

4T1 cell line = test: Clonogenic assay; format: cell-based, mouse; details: 4T1, 10 μM; FIG. 2B
Description: as §1

[1] = tested on: 4T1-luc orthotopic graft (fat pad, s.c.); test: Tumor (lung) metastasis in orthotopic animal model, IVIS luminescence; format: in vivo, mouse; details: 20 mg/kg intraperitoneal at 2-day intervals; compared to Vehicle; FIG. 9A, 9B
Text: (§2) After 4-week-old athymic nude mice (female) were purchased, only healthy mice were selected while the mice were adapted to the environment of the animal breeding room for 7 days. For identification of each mouse, the ears were marked using an ear punch. In addition, the breeding box was identified by attaching a mouse identification card describing the test number, test substance name, test item, receipt date, test date, test content, and the person in charge of the test. The environment of the animal breeding room was maintained at a temperature of 22±3° C., a relative humidity of 50±20%, 10 to 15 ventilations/hour, a 12-hour light (8:30 to 20:30)/dark cycle, and an illuminance of 150 to 300 lux. In addition, the animals were fed feed and drinking water during the breeding period, and quarantined during the acclimatization and testing periods. […]
During a period ranging from the day the mouse breast cancer cell line 4T1-luc cell line was injected to the end of the experiment (dissection date), lung metastasis of the cancer cell line was checked at intervals of 1 to 2 days. After the animal model was anesthetized by inhalation with 2.5% isoflurane, luminescence intensity was measured using an in-vivo imaging system (IVIS). […]

[2] = tested on: 4T1-luc orthotopic graft (fat pad, s.c.); test: Survival rate in orthotopic animal model; format: in vivo, mouse; details: 20 mg/kg intraperitoneal once every 3 days, 6 times; compared to Vehicle; FIG. 8D
Text: After 4-week-old athymic nude mice (female) were purchased, only healthy mice were selected while the mice were adapted to the environment of the animal breeding room for 7 days. For identification of each mouse, the ears were marked using an ear punch. In addition, the breeding box was identified by attaching a mouse identification card describing the test number, test substance name, test item, receipt date, test date, test content, and the person in charge of the test. The environment of the animal breeding room was maintained at a temperature of 22±3° C., a relative humidity of 50±20%, 10 to 15 ventilations/hour, a 12-hour light (8:30 to 20:30)/dark cycle, and an illuminance of 150 to 300 lux. In addition, the animals were fed feed and drinking water during the breeding period, and quarantined during the acclimatization and testing periods.
The nude mice were anesthetized by inhalation with 2.5% isoflurane, and then injected with the mouse breast cancer cell line 4T1-luc of Experimental Method 1 by a sterile syringe. […]
During a period ranging from the day the mouse breast cancer cell line 4T1-luc was injected to the end of the experiment (the date of death), the volume of the tumor was measured once every 3 days and the survival rate of the animal model was checked every day. […]

[3] = Body weight / toxicity in xenograft animal model; format: in vivo, mouse; details: 4 mg/kg tail vein (IV) once every 3 days, 6 times; FIG. 8C
Text: as §2
During a period ranging from the day the mouse breast cancer cell line 4T1-luc was injected to the end of the experiment (dissection date), the tumor volume was measured every day. […] In order to confirm the tumor regression effect, the volume of the tumor was measured before administration of the compound of Production Example 6, and at day 28 after the first administration of the compound of Production Example 6, the animals were euthanized, and the primary tumors were excised and their volumes were compared.

Question: With `COc1ccc(OC)c(/C=C/C(=O)c2ccc(NS(=O)(=O)c3ccc(Cl)cc3)cc2)c1` [Production Example 6, (E)-4-chloro-N-(4-(3-(2,5-dimethoxyphenyl)acryloyl)phenyl)benzenesulfonamide] as the compound, how does the colony formation (MDA-MB-231 cell line) read?
Answer: Its colony formation is “significantly reduced”.

Question: What about the colony formation (BT549 cell line) of the same compound?
Answer: Its colony formation is “significantly reduced”.

Question: What about the colony formation (4T1 cell line) of the same compound?
Answer: Its colony formation is “significantly reduced”.

Question: And the “luminescence intensity in the lung (4T1-luc lung metastasis)” value [1]?
Answer: The value was “significantly decreased”.

Question: And the survival rate [2]?
Answer: The survival rate was “significantly improved”.

Question: What about the “weight loss depending on the breeding time” value [3] of the same compound?
Answer: The value was “no weight loss”.
